Data published in patent publication US20090068161A1, “USE OF A COMBINATION OF HESPERIDIN AND OF A MICROORGANISM FOR INFLUENCING THE BARRIER FUNCTION OF THE SKIN” (L'OREAL, priority 2007, published 2009).

Tested on: Episkin® model (reconstituted skin)
Assay: Barrier function of reconstituted skin (Episkin® model): penetration of a nonpenetrating reference compound (cationic anthraquinone)
Format: cell-based
Conditions: condition E: Episkin® treated from D6 to D13 with 10 μM Hes7Glu; dye 1 mM applied for 4 hours
Text: The conversion of a nutritional agent (hereinafter known as probiotic conditioned medium) after ingestion is first of all stimulated, for the purpose of resulting use directly on a skin model (stage A).
The medium of the cocultures stimulated with Lactobacillus paracasei, resulting from the basolateral compartment, is subsequently withdrawn and its effects, in combination with the most important metabolite of hesperidin, hesperitin-7 glucuronide (Hes7Glu), on the barrier function in the Episkin® model are subsequently tested in vitro (stage B).
A—Preparation of the Probiotic Conditioned Medium
An intestinal barrier model (comprising human enterocyte lines (Caco-2) co-cultured with human leukocytes in a “transwell” cell co-culture system [Haller D, 2000]) has been developed. […]
The receiving liquid (RL) is collected and then assayed directly at the end of application by HPLC. Each point is analysed in duplicate. […]
The concentration is determined using a calibration range produced on the same day. The degrees of penetration are calculated from the ratio of the amount in the RL to the amount applied, the following results having in addition formed the subject of a statistical study using the Wilcoxon tests.

Structure (SMILES): COc1ccc([C@@H]2CC(=O)c3c(O)cc(O[C@@H]4O[C@H](C(=O)O)[C@@H](O)[C@H](O)[C@H]4O)cc3O2)cc1O [Hes7Glu, hesperitin-7 glucuronide]
- effect on the barrier function (degree of penetration of the cationic anthraquinone): no significant effect
